Here are results for 34 molecules from patent publication US20180280393A1, “METHODS AND COMPOSITIONS FOR TREATMENT OF METASTATIC AND REFRACTORY CANCERS AND TUMORS” (The Wistar Institute of Anatomy and Biology, priority 2015, published 2018).

Where two headings read alike, the source gives them in different places.

Test [1] deals with human T cells. Put plainly: ConA-induced activation and expansion of human T cells (high-throughput screen). The test is classed as cell-based. As to conditions: human T cells activated with ConA for 7 days, N/A = ambiguous curve fits or EC50 greater than the highest concentration tested (25 μM). The method, then:
T cell stimulation—For human T cell proliferation assays, peripheral blood lymphocytes were obtained by leukapheresis/elutriation and Miltenyi bead-purified and K562 cells expressing human CD32 were generated as previously described^41. […] PBMCs were labeled with CELLTRACE Violet stain (Invitrogen) according to the manufacturer's instructions and cocultured with loaded K32 cells at a 10:1 T cells:K32 ratio or activated with ConA (2 μg/ml, Sigma). Proliferation of stimulated T cells was determined 7 days later by FACS and Division Index was calculated using FlowJo software.
(§1) EC50 values were calculated from normalized percent inhibition data using non-linear curve fitting in PRISM software.

Test [2] concerns A2780 ovarian cancer cells. The experiment in a line: Molecular screening of compounds on A2780 cell proliferation (resazurin fluorescence). In kind it is cell-based, human. As to conditions: A2780 cells cultured 3 days, N/A = ambiguous curve fits or EC50 greater than the highest concentration tested (25 μM), read-out: EC5 - A2780 ovarian cancer cells. The method, then: Cell proliferation assays—Cells were plated in 96-well plates. Compounds were added the next morning, and cell proliferation was measured 48 hrs later with the […] 96 MTS assay (Promega) according to the manufacturer's instructions. Molecular screening of compounds on A2780 cells was performed by adding compounds the morning after plating in 384-well plates and measuring proliferation 72 hrs later with resazurin fluorescence. Normalized percent inhibition (NPI) was calculated with respect to fluorescence values obtained with DMSO negative control and doxorubicin (5 μM) positive control as NPI=100%*(DMSO−compound)/(DMSO−doxorubicin). TCR ligation of human CD8 T cells
as §1
A general note: Alamar Blue is a resazurin reagent that responds to reducing activity.

The test system of test [3] is human T cells. Put plainly: Cytokine rescue of human T cell proliferation from MEK inhibition. As to conditions: GDC0973 or trametinib. In kind it is cell-based. The method, then: Proliferation of CD8 T cells after 7 days is shown.
FIG. 2D is a graph showing that human PBMCs were activated as in FIG. 2B with the indicated compounds, BKM120=2 μM.
Reported are percentages of cells that proliferated with GDC0973 relative to vehicle treatment with the same cytokines after 7 days. Stains are not depicted.
T cell stimulation—For human T cell proliferation assays, peripheral blood lymphocytes were obtained by leukapheresis/elutriation and Miltenyi bead-purified and K562 cells expressing human CD32 were generated as previously described^41. K32 were γ-irradiated (100 Gy) and loaded with anti-CD3 (500 ng/ml, clone OKT3; eBioscience) plus anti-CD28 (500 ng/ml, clone 15E8; EMD Millipore) antibodies at room temperature for 10 minutes. PBMCs were labeled with CELLTRACE Violet stain (Invitrogen) according to the manufacturer's instructions and cocultured with loaded K32 cells at a 10:1 T cells:K32 ratio or activated with ConA (2 μg/ml, Sigma). Proliferation of stimulated T cells was determined 7 days later by FACS and Division Index was calculated using FlowJo software.

For test [4], the system named is human T cells. The experiment in a line: aAPC (anti-CD3/anti-CD28)-induced human T cell proliferation, CELLTRACE
In kind it is cell-based. The settings on record: 7 days. The method, then: Four plots show proliferation of CD8 cells after 7 days is shown. […] Proliferation of CD8 cells after 7 days is shown. T cell stimulation-For human T cell proliferation assays, peripheral blood lymphocytes were obtained by leukapheresis/elutriation and Miltenyi bead-purified and K562 cells expressing human CD32 were generated as previously described^41. […] were γ-irradiated (100 Gy) and loaded with anti-CD3 (500 ng/ml, clone OKT3; eBioscience) plus anti-CD28 (500 ng/ml, clone 15E8; EMD Millipore) antibodies at room temperature for 10 minutes. PBMCs were labeled with CELLTRACE Violet stain (Invitrogen) according to the manufacturer's instructions and cocultured with loaded […] cells at a 10:1 T cells:[…] ratio or activated with ConA (2 μg/ml, Sigma). Proliferation of stimulated T cells was determined 7 days later by FACS and Division Index was calculated using FlowJo software.

As for `CN(C)C(=O)c1cc2cnc(Nc3ccc(N4CCNCC4)cn3)nc2n1C1CCCC1` [LEE011], the EC50 in test [1] (T-cell, 168 h) was determined as 2930 nM.

In test [1] (T-cell, 168 h), `Cn1cnc2c(F)c(Nc3ccc(Br)cc3Cl)c(C(=O)NOCCO)cc21` [AZD6244 (selumetinib), selumetinib] gave an EC50 of 24500 nM.

In test [1] (T-cell, 168 h), `CCCS(=O)(=O)Nc1ccc(F)c(C(=O)c2c[nH]c3ncc(-c4ccc(Cl)cc4)cc23)c1F` [PLX4032 (vemurafenib), vemurafenib] registered an EC50 of 5260 nM.

Turning to `Cc1c(C(=O)Nc2ccc(N3C[C@@H](C)O[C@@H](C)C3)nc2)cccc1-c1ccc(OC(F)(F)F)cc1` [LDE225], the EC50 in test [1] (T-cell, 168 h) came to 3570 nM; in test [2] (Homo sapiens, 72 h), 8.48 µM.

For the molecule “IL-21: cytokine tested for rescue of T cell expansion from MEK inhibition”, the “rescue of T cell proliferation in the presence of the MEK inhibitors” value (“rescue … of the MEK inhibitors” below) in test [3] was “no effect”.

On to `Cc1cc([C@@H](C)Nc2ccccc2C(=O)O)c2nc(N3CCOCC3)cc(=O)n2c1` [AZD6482], for which the EC50 in test [1] (T-cell, 168 h) came to 962 nM.

`CC(C)(C)c1cc(C=C(C#N)C#N)cc(Br)c1O` [AG1024]: the EC50 in test [1] came to 9830 nM; in test [2], 21.3 µM.

`CCc1cc(Nc2nccc(-c3c(-c4ccc(OC)c(C(=O)Nc5c(F)cccc5F)c4)nc4ccccn34)n2)c(OC)cc1N1CCC(N2CCN(S(C)(=O)=O)CC2)CC1` [GSK1904529]: the EC50 in test [1] stood at 13900 nM.

On to `O=C(c1ccc(F)c(F)c1Nc1ccc(I)cc1F)N1CC(O)([C@@H]2CCCCN2)C1` [GDC0973], for which the EC50 in test [1] (T-cell, 168 h) worked out at 4.35 nM; in test [2] (Homo sapiens, 72 h), 9.04 µM. Also, in test [4], the “proliferation of human T cells in response to aAPC coated with agonistic CD3 and CD28 antibodies” value is “restricted the proliferation”.

With `COc1ncc(-c2ccc3nccc(-c4ccnnc4)c3c2)cc1NS(=O)(=O)c1ccc(F)cc1F` [GSK2126458], the EC50 in test [1] worked out at 0.237 nM; in test [2], 0.155 µM.

On to `Cc1cn(-c2cc(NC(=O)c3ccc(C)c(Nc4nccc(-c5cccnc5)n4)c3)cc(C(F)(F)F)c2)cn1` [AMN107], for which the EC50 in test [1] (T-cell, 168 h) came out at 2480 nM; in test [2] (Homo sapiens, 72 h), 19.1 µM.

`CC(C)n1nc(-c2ccc3oc(N)nc3c2)c2c(N)ncnc21` [INK128]: the EC50 in test [1] (T-cell, 168 h) was determined as 18.4 nM; in test [2] (Homo sapiens, 72 h), 0.257 µM.

`CCN(CCCOc1ccc2c(Nc3cc(CC(=O)Nc4cccc(F)c4)n[nH]3)ncnc2c1)CCOP(=O)(O)O` [AZD1152] had an EC50 in test [1] (T-cell, 168 h) of 92.1 nM.

Consider `NC1(c2ccc(-c3nc4ccn5c(=O)[nH]nc5c4cc3-c3ccccc3)cc2)CCC1` [MK2206], for which the EC50 was determined as 446 nM in test [1] (T-cell, 168 h) and 8.75 µM in test [2] (Homo sapiens, 72 h).

The molecule `CN1CCN(CCOc2cc(OC3CCOCC3)c3c(Nc4c(Cl)ccc5c4OCO5)ncnc3c2)CC1` [AZD0530 (saracatinib), saracatinib] gave an EC50 in test [1] (T-cell, 168 h) of 422 nM.

With `O=C(Nc1cccc(Cl)c1)Nc1ncc(CCNc2ncnc3ccsc23)s1` [SNS314], the EC50 is 72.9 nM in test [1] (T-cell, 168 h) and 5.83 µM in test [2] (Homo sapiens, 72 h).

On to `Cn1c(Nc2ccc(C(F)(F)F)cc2)nc2cc(Oc3ccnc(-c4ncc(C(F)(F)F)[nH]4)c3)ccc21` [RAF265], for which the EC50 in test [1] (T-cell, 168 h) worked out at 128 nM; in test [2] (Homo sapiens, 72 h), 5.63 µM.

For the molecule `COc1cccc2cc(-c3nc([C@H]4CC[C@H](C(=O)O)CC4)n4ncnc(N)c34)[nH]c12` [OSI027], the EC50 came to 311 nM in test [1] (T-cell, 168 h) and 5.88 µM in test [2] (Homo sapiens, 72 h).

In the case of `Cc1cc(-c2ncc(CC(=O)Nc3ccc(-c4cnccn4)cn3)cc2C)ccn1` [LGK974], the EC50 in test [1] (T-cell, 168 h) turned out to be 9030 nM; in test [2] (Homo sapiens, 72 h), 24.4 µM.

On to `CC(=O)c1c(C)c2cnc(Nc3ccc(N4CCNCC4)cn3)nc2n(C2CCCC2)c1=O` [PD0332991], for which, in test [2] (Homo sapiens, 72 h), the EC50 was determined as 5.21 µM.

As to `Cn1ncc(Cl)c1-c1cc(C(=O)N[C@H](CN)Cc2ccc(F)c(F)c2)oc1Cl` [GSK2141795], the figures for the EC50 in test [1] and in test [2] were 96 nM and 2.35 µM, respectively.

With `C=CCN(/C=C1/C(=O)O[C@H](COC)[C@@]2(C)C1=C(O)C(=O)C1=C2[C@H](OC(C)=O)C[C@]2(C)C(=O)CC[C@@H]12)CC=C` [PX-866], the EC50 in test [1] amounted to 1200 nM.

In the case of `CC(C)(C)c1nc(-c2cccc(NS(=O)(=O)c3c(F)cccc3F)c2F)c(-c2ccnc(N)n2)s1` [GSK436 (dabrafenib), dabrafenib], the EC50 in test [1] (T-cell, 168 h) is 1280 nM; in test [2] (Homo sapiens, 72 h), 11.4 µM.

For `O=C(Nc1ccc2[nH]nc(-c3ccncc3)c2c1)[C@@H]1CCN(CC(=O)N2CCN(c3ccc(-c4ncccn4)cc3)CC2)C1` [SCH772984], the EC50 is 22.2 nM in test [1] (T-cell, 168 h) and 7.64 µM in test [2] (Homo sapiens, 72 h).

Turning to `Cc1[nH]c2ccccc2c1CCNCc1ccc(/C=C/C(=O)NO)cc1` [LBH589], the EC50 in test [2] (Homo sapiens, 72 h) was 3.61 µM.

On to `Nc1cc(C(F)(F)F)c(-c2cc(N3CCOCC3)nc(N3CCOCC3)n2)cn1` [BKM120], for which the EC50 in test [1] (T-cell, 168 h) turned out to be 239 nM; in test [2] (Homo sapiens, 72 h) it was 11.5 µM. Also, in test [4], the “proliferation of human T cells in response to aAPC coated with agonistic CD3 and CD28 antibodies” value was “restricted the proliferation”.

Regarding `COC1=CC(c2cc3ccccc3[nH]2)=N/C1=C\c1[nH]c(C)cc1C` [obatoclax], the EC50 in test [1] (T-cell, 168 h) was 56.7 nM; in test [2] (Homo sapiens, 72 h) it was 1.11 µM.

Consider `O=c1cc(N2CCOCC2)oc2c(-c3ccccc3)cccc12` [LY294002], for which the EC50 in test [1] (T-cell, 168 h) is 2690 nM; in test [2] (Homo sapiens, 72 h), 17.2 µM.

For `COc1cc(Nc2ncc3c(n2)-c2ccc(Cl)cc2C(c2c(F)cccc2OC)=NC3)ccc1C(=O)O` [MLN8237], the EC50 in test [1] (T-cell, 168 h) was 86.8 nM.

In turn, `CO[C@H]1C[C@@H]2CC[C@@H](C)[C@@](O)(O2)C(=O)C(=O)N2CCCC[C@H]2C(=O)O[C@H]([C@H](C)C[C@@H]2CC[C@@H](O)[C@H](OC)C2)CC(=O)[C@H](C)/C=C(\C)[C@@H](O)[C@@H](OC)C(=O)[C@H](C)C[C@H](C)/C=C/C=C/C=C/1C` [Rapamycin] displayed an EC50 in test [1] (T-cell, 168 h) of 4.03 nM.

Consider `CS(=O)(=O)N1CCN(Cc2cc3nc(-c4cccc5[nH]ncc45)nc(N4CCOCC4)c3s2)CC1` [GDC0941], for which, in test [2] (Homo sapiens, 72 h), the EC50 is 1.54 µM.

Turning to `COc1ccc(C2=N[C@@H](c3ccc(Cl)cc3)[C@@H](c3ccc(Cl)cc3)N2C(=O)N2CCNC(=O)C2)c(OC(C)C)c1` [nutlin-3a], the EC50 in test [1] was found to be 1130 nM; in test [2] it was 16.8 µM.

B1: IL-7: recombinant mouse IL-7 (Peprotech) (protein, UniProt P10168 26-154, looked up)
Interleukin-7: ECHIKDKEGKAYESVLMISIDELDKMTGTDSNCPNNEPNFFRKHVCDDTKEAAFLNRAARKLKQFLKMNISEEFNVHLLTVSQGTQTLVNCTSKEEKNVKEQKKNDACFLKRLLREIKTCWNKILKGSI
B1: in test [3], the “rescue … of the MEK inhibitors” value is given as “able to rescue T cell proliferation”.

B2: IL-27: cytokine tested for rescue of T cell expansion from MEK inhibition (protein, UniProt Q8NEV9 29-243; Q14213 21-229, looked up)
Interleukin-27 subunit alpha: FPRPPGRPQLSLQELRREFTVSLHLARKLLSEVRGQAHRFAESHLPGVNLYLLPLGEQLPDVSLTFQAWRRLSDPERLCFISTTLQPFHALLGGLGTQGRWTNMERMQLWAMRLDLRDLQRHLRFQVLAAGFNLPEEEEEEEEEEEEERKGLLPGALGSALQGPAQVSWPQLLSTYRLLHSLELVLSRAVRELLLLSKAGHSVWPLGFPTLSPQP
Interleukin-27 subunit beta: RKGPPAALTLPRVQCRASRYPIAVDCSWTLPPAPNSTSPVSFIATYRLGMAARGHSWPCLQQTPTSTSCTITDVQLFSMAPYVLNVTAVHPWGSSSSFVPFITEHIIKPDPPEGVRLSPLAERQLQVQWEPPGSWPFPEIFSLKYWIRYKRQGAARFHRVGPIEATSFILRAVRPRARYYVQVAAQDLTDYGELSDWSLPATATMSLGK
For the molecule B2, the “rescue … of the MEK inhibitors” value in test [3] is given as “no effect”.
